Experimental data: PubChem BioAssay AID720562 (Broad Institute, 2013)
The source made the active and inactive calls.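 How the source made its calls: active means fitted curve rises past 40% activation at or below the highest valid tested dose; inconclusive means flat fit between 30% and 70%, or poor curve fit; inactive means the rest, including signal falling instead of rising.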

The molecules below were run against Luciferin 4-monooxygenase (Photinus pyralis) (UniProt P08659) (assay: compounds altering purified luciferase luminescence – biochemical, CellTiter-Glo luminescence, dry powder samples, counter-screen for NLG project, dose response (AID 720562)). Details: 1 h.
Chain of Luciferin 4-monooxygenase (Photinus pyralis) (P08659 whole entry, looked up): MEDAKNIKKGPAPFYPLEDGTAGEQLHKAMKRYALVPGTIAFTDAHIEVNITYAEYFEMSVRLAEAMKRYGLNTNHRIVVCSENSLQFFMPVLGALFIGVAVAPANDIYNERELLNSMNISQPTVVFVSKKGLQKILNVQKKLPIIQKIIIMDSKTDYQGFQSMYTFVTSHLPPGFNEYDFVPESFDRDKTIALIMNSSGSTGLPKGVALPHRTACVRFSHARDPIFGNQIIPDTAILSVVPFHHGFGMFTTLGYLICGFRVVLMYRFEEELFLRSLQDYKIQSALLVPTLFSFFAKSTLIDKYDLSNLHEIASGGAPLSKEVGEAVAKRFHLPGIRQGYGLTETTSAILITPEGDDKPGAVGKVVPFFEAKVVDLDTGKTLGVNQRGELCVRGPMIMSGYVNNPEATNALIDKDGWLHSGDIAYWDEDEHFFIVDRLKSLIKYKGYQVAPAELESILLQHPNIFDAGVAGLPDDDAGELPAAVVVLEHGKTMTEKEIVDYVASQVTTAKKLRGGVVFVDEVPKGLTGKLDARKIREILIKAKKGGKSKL

SMILES	AC40
COc1ccc(-c2nnc(SCc3ccccc3)o2)cc1	> 30 µM (inactive)
COc1ccc2c(COC(=O)c3cccc(S(=O)(=O)NCC(C)C)c3)cc(=O)oc2c1	1.49 µM
c1ccc(CSc2nnc(-c3ccccc3)o2)cc1	20.9 µM
O=C(Cc1ccccc1)c1nnc(-c2ccccc2)o1	> 30 µM (inactive)
O=C1CCNc2cc3ccccc3cc21	28.2 µM
CCN(CC)CCOc1ccc2c(c1)C(=NNC(=O)c1ccccn1)c1cc(OCCN(CC)CC)ccc1-2	> 30 µM (inactive)
COc1cc(C(=O)NCCOc2cc(C)cc(C)c2)cc(OC)c1OC	24.5 µM
COc1ccc(CSc2nnc(-c3ccccc3)o2)cc1	> 30 µM (inactive)
CC(=O)N[C@H]1[C@@H](O[C@@H]2OC(C[C@@H](O)C3O[C@@H](n4ccc(=O)[nH]c4=O)[C@H](O)[C@@H]3O)[C@H](O)[C@H](O)[C@H]2NC(=O)/C=C/CCCCCCCCCCC(C)C)O[C@H](CO)[C@@H](O)[C@@H]1O (some centres not stated)	13.1 µM
Cc1ccc(/C=N/NC(=O)C2COc3ccccc3O2)s1 (configuration not stated)	> 30 µM (inactive)
O=C(N/N=C/c1ccc(Cl)cc1)c1sccc1OCc1ccc(F)cc1	> 30 µM (inactive)
CCCOC(=O)c1[nH]c2c(c1C)C(=O)CC(c1cccs1)C2 (configuration not stated)	10 µM
COc1cc(-c2nnc(SCC3(c4ccc(Br)cc4)OCCO3)o2)cc(OC)c1OC	> 30 µM (inactive)
CCCNS(=O)(=O)c1cccc(C(=O)OCc2cc(=O)oc3cc(OC)ccc23)c1	6.81 µM
CCN(CC)CCC(=O)Nc1cccc2c1C(=O)c1ccccc1C2=O	14.7 µM
CC(=O)N1CCC(=O)c2cc3ccccc3cc21	4.65 µM
COC(=O)c1cn(C(=O)c2ccc(OC)cc2)c2ccccc12	12.5 µM

Same assay, conditions: 1 h, at 7.5 µM (top of the series)

SMILES	luminescence change, positive = activation
CCn1c2ccccc2c2cc(NC(=O)c3cc(OC)c(OC)c(OC)c3)ccc21	-35.8% (inactive)
CCOc1ccc(S(=O)(=O)NCc2ccccn2)cc1NC(=O)c1ccccc1F	-35.8% (inactive)
O=C1CCN(Cc2ccccc2)c2cc3ccccc3cc21	10.8% (inactive)

Same assay, conditions: 1 h, at 30 µM (top of the series)

SMILES	luminescence change, positive = activation
COc1ccccc1OCC(=O)NNC(=O)c1ccoc1C	-17.6% (inactive)
CCN(CC)CCCNc1nc2cc(OC)c(OC)cc2c2nc(-c3ccccc3)nn12	-10.1% (inactive)
Cc1cc(C)cc(C(=O)N2CC(=O)Nc3ccccc32)c1	-9.46% (inactive)
Cc1ccc(Oc2ccc(S(=O)(=O)N3CCOCC3)cc2C(N)=O)c(-n2nc3ccccc3n2)c1	-22.3% (inactive)
COc1ccccc1-c1nnc(SCc2ccccc2)o1	-10.8% (inactive)
COc1cc(Nc2c3c(nc4ccccc24)CCCC3)cc(OC)c1OC	-14.9% (inactive)
Cc1cc(NC(=O)CSc2nc(-c3ccco3)cc(C(F)(F)F)n2)no1	-25.7% (inactive)
CC(=O)c1ccc(Oc2cc(C)nc(-n3nc(C)cc3C)n2)cc1	-10.8% (inactive)
CCOC(=O)c1ccc(Oc2cc(C)nc(SC)n2)cc1	16.2% (inactive)
CCC1=Nc2cc(C(=O)NCCCOC)ccc2Sc2ccccc21	-11.5% (inactive)
Cc1cc(C)nc(/N=C(\N)Nc2ccc(OCc3ccccc3)cc2)n1	36.9% (inactive)
Cc1ccc(C(=O)c2cc([N+](=O)[O-])ccc2N2CCOCC2)cc1C	19.8% (inactive)
CCOC(=O)COc1cccc2c(=O)n(CC(=O)NCc3ccccc3)ccc12	-4.73% (inactive)
Cc1cnc(NC(=O)c2cc(S(=O)(=O)N(C)C)ccc2N2CCCC2)s1	8.11% (inactive)
C/C(=N\NC(=O)c1c([N+](=O)[O-])c(C)nn1C)c1ccc(NC(=O)C2CCCC2)cc1	-2.7% (inactive)
COc1cccc(N2CCN(C(=O)c3ccc(CS(=O)c4ccc(C)cc4)o3)CC2)c1 (configuration not stated)	8.11% (inactive)
Cc1cc(=O)[nH]c(N/N=C/c2cc(C)n(CC(F)(F)F)c2C)n1	36% (inactive)
CC(=O)c1cccc(NC(=O)CSc2ncc(C(=O)Nc3ccccc3)c(=O)n2C)c1	-7.43% (inactive)
CCOc1ccc(NC(=O)c2cc(OC)nc3ccccc23)cc1	-0.676% (inactive)
CCCCOc1ccccc1C1CC(=O)NC2=C1C(=O)CCC2 (configuration not stated)	-27% (inactive)
Brc1ccc(CSc2nnc(-c3ccccc3)o2)cc1	21.6% (inactive)
Cc1[nH][nH]c(=O)c1C(c1ccc(-c2ccc(Cl)c(Cl)c2)o1)c1c(C)[nH][nH]c1=O	7.43% (inactive)
Cc1ccc(CCC(=O)Nc2ncc(Cc3cc(Cl)ccc3Cl)s2)o1	-24.3% (inactive)
COc1ccc(NC(=O)C(=O)c2cn(CC(=O)N3CCCC3)c3ccccc23)cc1	-20.3% (inactive)
Cc1cccc(C)c1OCCNC(=O)C(=O)NCc1ccco1	-39.9% (inactive)
COc1ccccc1CSc1nnc(-c2ccccc2)o1	19.8% (inactive)
Nc1nc(=S)c2ncn([C@@H]3O[C@H](CO)[C@@H](O)[C@H]3O)c2[nH]1	97.3% (inactive)
